Test results as given in patent US20260364081A1, “METHOD FOR PREVENTING OR TREATING ATTENTION DEFICIT HYPERACTIVITY DISORDER (ADHD) AND FOR PREPARING A COMPOUND OR SALT THEREOF” (ASTROGEN, INC., priority 2023, published 2026).
Counter-ions that a name gives are not always drawn. Like-named read-outs stand apart in the source and are kept apart here.

Columns and labels:
[1] = background statement; cited from earlier work
[2] = molecular target: norepinephrine receptor (Homo sapiens, UniProt P23975); settings: read-out: norepinephrine reuptake inhibition IC50, HEK-293T cells stably expressing the norepinephrine receptor, 30 min drug incubation, 37 °C, 30 min kinetic fluorescence reading
norepinephrine receptor, sequence (P23975 whole entry): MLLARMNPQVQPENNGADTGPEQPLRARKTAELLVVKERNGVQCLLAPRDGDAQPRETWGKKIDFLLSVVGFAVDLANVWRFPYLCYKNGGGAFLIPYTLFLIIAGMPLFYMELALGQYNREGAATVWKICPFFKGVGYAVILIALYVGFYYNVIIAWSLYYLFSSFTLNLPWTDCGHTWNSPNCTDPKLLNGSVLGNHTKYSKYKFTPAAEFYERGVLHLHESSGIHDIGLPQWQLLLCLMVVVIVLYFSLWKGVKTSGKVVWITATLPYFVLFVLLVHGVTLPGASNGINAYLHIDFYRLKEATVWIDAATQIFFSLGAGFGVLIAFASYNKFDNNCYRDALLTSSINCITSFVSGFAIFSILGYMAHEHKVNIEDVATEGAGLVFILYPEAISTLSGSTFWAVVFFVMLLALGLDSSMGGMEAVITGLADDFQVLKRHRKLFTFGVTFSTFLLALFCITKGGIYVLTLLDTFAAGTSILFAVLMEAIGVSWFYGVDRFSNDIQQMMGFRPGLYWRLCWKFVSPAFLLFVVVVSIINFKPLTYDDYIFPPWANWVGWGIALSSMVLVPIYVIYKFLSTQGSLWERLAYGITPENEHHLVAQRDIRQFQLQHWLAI
Procedure: The norepinephrine reuptake ability in a cell line expressing the norepinephrine receptor was confirmed using a kit (Neurotransmitter Transporter Uptake Assay Kit, Molecular Devices) composed of a fluorescent material that mimics amine neurotransmitters and a masking dye.
First, HEK-293T cells stably expressing the norepinephrine receptor were seeded in a 96-well Black/Clear Bottom Plate to contain 6×10^4 cells in 100 μl of cell culture medium per well. After incubating for 20 hours in a 37 °C, 5% CO2 incubator to allow the cells to properly attach and stabilize on the plate, the cell culture medium was removed, and 100 μl of an HBSS+0.1% BSA with 20 mM HEPES aqueous solution in which a drug of a target concentration was dissolved was dispensed into each well. For the control group, 100 μl of a drug-free buffer solution (HBSS+0.1% BSA with 20 mM HEPES aqueous solution) was dispensed. The plate was incubated for 30 minutes in a 37 °C, 5% CO2 incubator to allow the drug to sufficiently react with the receptor.
Thereafter, fluorescence was measured for a total of 30 minutes in Kinetic reading mode at Ex/Em=440 nm/520 nm using a fluorescence plate reader (SpectraMax®). The measured fluorescence intensity value was converted into a value of “reuptake inhibition rate (%)” using the following formula, and then a dose-response curve was plotted through 4-parameter (Log) logistic regression, and the IC50 value for each drug was calculated and compared (FIGS. 4 and 5).

[3] = cited from earlier work
[4] = system: 5HT2B receptor; settings: background statement; cited from earlier work
[5] = system: norepinephrine reuptake; settings: background statement, cited from earlier work
[6] = system: 5-HT2C receptor; settings: background statement; cited from earlier work
[7] = system: CYP2D6; settings: background statement; cited from earlier work
[8] = system: attention-deficit/hyperactivity disorder (ADHD); settings: clinical trials, patients with ADHD, versus placebo; cited from earlier work
[9] = Thermal stability test (content by HPLC, visual discoloration); type: physicochemical; settings: for Content at 0 weeks / remaining at 1344 h / Content after 8 weeks: HPLC; for Content at 0 weeks: start of storage at 40±2 °C and 75±5% RH; for remaining at 1344 h: solid, 75% rh, read-out: Content after 8 weeks; for remaining at 1344 h / Content after 8 weeks: 8 weeks at 40±2 °C and 75±5% RH, opaque glass vials; for Discoloration: visual, after 8 weeks at 40±2 °C and 75±5% RH; for Content after 8 weeks: 80640 min
Procedure: 8 mg each of the viloxazine hydrochloride of Comparative Examples 1 and 2, and the novel salts of (S)-viloxazine of Examples 6 to 16 were placed into opaque glass vials and stored at 40±2 °C and 75±5% RH. After 8 weeks, each sample was taken out, its content was analyzed by high-performance liquid chromatography (HPLC), and the presence of discoloration was visually confirmed (Table 2).

[10] = system: dopamine; settings: background statement; cited from earlier work

Structure (SMILES)	IC50 [2] [µM]	Content at 0 weeks [9]	Content after 8 weeks [9]	further results
CCOc1ccccc1OCC1CNCCO1 (racemic) [Comparative Example 1, (R,S)-viloxazine hydrochloride]	62.9	99.5%		route of excretion of metabolites [1]: majority of its metabolites are excreted through urine; suicidal ideation or suicide risk ([3]; during initial treatment or dosage adjustment): increased risk of suicidal ideation or suicide; risk in patients with bipolar disorder ([3]; patients with bipolar disorder): risk of worsening symptoms in patients with bipolar disorder; most common side effects ([3]; patients): drowsiness, reduced appetite, fatigue, nausea, and insomnia; heart rate and blood pressure ([3]; some of the patients administered viloxazine HCl): increase in heart rate and blood pressure; risk of drug abuse, dependence, or withdrawal symptoms ([3]; upon treatment discontinuation): low risk of drug abuse, dependence, or withdrawal symptoms; activity at 5HT2B receptor [4]: 5HT2B receptor antagonist; norepinephrine reuptake inhibition (in words) ([5]; listed as Racemic viloxazine hydrochloride): selective inhibition of norepinephrine reuptake; norepinephrine reuptake inhibition (in words) ([5]; hydrochloride): selectively inhibits norepinephrine reuptake; activity at 5-HT2C receptor [6]: 5-HT2C receptor agonist; metabolizing enzyme [7]: metabolized through the CYP2D6 enzyme; clinical efficacy in ADHD symptoms [8]: showed improved symptoms compared to patients who took a placebo; remaining at 1344 h [9]: 98.7%; Discoloration ([9]; hydrochloride): discolored to an off-white color; effect on dopamine [10]: low effect on dopamine
CCOc1ccccc1OC[C@H]1CNCCO1 [Comparative Example 2, (R)-viloxazine hydrochloride, reference compound]	108	99.2%		remaining at 1344 h [9]: 98.1%; Discoloration ([9]; hydrochloride): discolored to an off-white color
CCOc1ccccc1OC[C@@H]1CNCCO1 [Example 6, (S)-viloxazine hydrochloride]				IC50 ([2]; hydrochloride): 22.5 µM; Content at 0 weeks ([9]; hydrochloride): 99.5%; remaining at 1344 h [9]: 99.2%
CCOc1ccccc1OC[C@@H]1CNCCO1 [Example 8, (S)-viloxazine hydrobromide]				IC50 ([2]; hydrobromide): 38.6 µM; Content after 8 weeks ([9]; hydrobromide): 99.0%; Content at 0 weeks ([9]; hydrobromide): 99.2%
CCOc1ccccc1OC[C@@H]1CNCCO1 [Example 9, (S)-viloxazine nitrate]	42	98.2%	97.7%	
CCOc1ccccc1OC[C@@H]1CNCCO1 [Example 11, (S)-viloxazine trifluoroacetate]	33.6	99.0%	98.5%	
CCOc1ccccc1OC[C@@H]1CNCCO1 [Example 12, (S)-viloxazine oxalate]	34.3	99.1%	98.6%	
CCOc1ccccc1OC[C@@H]1CNCCO1 [Example 13, (S)-viloxazine fumarate]	36.1	99.0%	98.5%	
CCOc1ccccc1OC[C@@H]1CNCCO1 [Example 15, (S)-viloxazine citrate]	40.1	99.0%	98.6%	
CCOc1ccccc1OC[C@@H]1CNCCO1 [Example 16, (S)-viloxazine methanesulfonate]		98.0 → 98.0%	98.0 → 98.0%	

The next lines start with results.

IC50 [2] [µM]	Content at 0 weeks [9]	Content after 8 weeks [9]	Structure (SMILES)	further results
29.3	99.3%	98.6%	CCOc1ccccc1OC[C@@H]1CNCCO1 [Example 7, (S)-viloxazine sulfate]	
24.3	99.6%	99.3%	CCOc1ccccc1OC[C@@H]1CNCCO1 [Example 10, (S)-viloxazine acetate]	
28.8	99.1%	98.5%	CCOc1ccccc1OC[C@@H]1CNCCO1 [Example 14, (S)-viloxazine maleate]	
